Measured values taken from patent US12052991B2, “Substituted pyridinyloxybenzenes and salts thereof and use thereof as herbicidal agents” (Bayer Aktiengesellschaft, priority 2018, dated 2024).

Assays:
Type in all cases: in vivo
Stellaria media (STEME) [1] = experiment: Herbicidal post-emergence action (Table B8); conditions: visual rating about 3 weeks after treatment, 100% = plants have died, 0% = like control plants
In short: (§1)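 Visual percent activity relative to untreated controls (100% = plants dead, 0% = like controls) was scored about 3 weeks after treatment. Plants had been sprayed at the one-leaf stage with formulated compound at 1280 or 320 g/ha in 600 L/ha water containing 0.5% additive.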

[2] = system: Matricaria inodora (MATIN); experiment: Herbicidal pre-emergence action, test C (Table C7); conditions: visual scoring after about 3 weeks, 100% = plants have died, 0% = like control plants
In short: (§2)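 In this test, soil-covered weed seeds in sandy loam received a surface application of compound at 1280 or 320 g/ha. Effects were rated visually as percentages compared with untreated controls roughly 3 weeks later.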

Poa annua (POAAN) [3] = experiment: Herbicidal post-emergence action (Table B3); conditions: rated visually after about 3 weeks, 100% = plants have died, 0% = like control plants
In short: as §1

Veronica persica (VERPE) [4] = experiment: Herbicidal pre-emergence action, test C (Table C12); conditions: visual scoring vs untreated controls
In short: as §2

Lolium rigidum (LOLRI) = experiment: Herbicidal pre-emergence action, test C (Table C2); conditions: dosage 1280 g/ha; visual scoring after about 3 weeks; 100% = plants have died, 0% = like control plants
Text: (§3) Seeds of mono- and dicotyledonous weed plants were placed in plastic pots in sandy loam soil (doubly sown with one species each of mono- or dicotyledonous weed plants per pot) and covered with soil. The compounds of the invention, formulated in the form of wettable powders (WP) or as emulsion concentrates (EC), were then applied onto the surface of the covering soil as aqueous suspension or emulsion with addition of 0.5% additive at a water application rate of 600 liters per hectare (converted). After the treatment, the pots were placed in a greenhouse and kept under good growth conditions for the test plants. After about 3 weeks, the effect of the preparations was scored visually in comparison with untreated controls as percentages. For example, 100% activity=the plants have died, 0% activity=like control plants. Tables C1 to C12 below show the effects of selected compounds of the general formula (I) according to Table 1 on various harmful plants and an application rate corresponding to 1280 or 320 g/ha, which were obtained by the experimental procedure mentioned above.

[5] = system: Digitaria sanguinalis (DIGSA); experiment: Herbicidal pre-emergence action, test C (Table C10); conditions: visual scoring after about 3 weeks, 100% = plants have died, 0% = like control plants
In short: as §2

[6] = system: Amaranthus retroflexus (AMARE); experiment: Herbicidal pre-emergence action, test C (Table C6); conditions: visual scoring after about 3 weeks, 100% = plants have died, 0% = like control plants
In short: as §2

Veronica persica (VERPE) [7] = experiment: Herbicidal post-emergence action (Table B12); conditions: visual rating about 3 weeks after treatment, 100% = plants have died, 0% = like control plants
In short: as §1

[8] = system: harmful plants ABUTH, AMARE, ECHCG, LOLRI, MATIN, POAAN, SETVI, STEME, ALOMY, DIGSA, KCHSC and VERPE; experiment: Herbicidal post-emergence action, summary of Tables B1-B12; conditions: application rate of 1280 or 320 g of active ingredient per hectare; summary in words
In short: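 Greenhouse weeds in sandy loam treated post-emergence at the one-leaf stage, 2–3 weeks after sowing, with WP or EC formulations sprayed with 0.5% additive at 600 L/ha water, 1280 or 320 g/ha. Damage rated visually after about 3 weeks versus untreated controls (0% = like control, 100% = dead).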

[9] = system: harmful plants ABUTH, AMARE, ECHCG, LOLRI, MATIN, POAAN, SETVI, STEME, ALOMY, DIGSA, KCHSC and VERPE; experiment: Herbicidal pre-emergence action (test C), summary of Tables C1-C12; conditions: application rate of 1280 or 320 g of active ingredient per hectare; summary in words
In short: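 Pre-emergence pot test in sandy loam: WP or EC formulations were sprayed onto the covering soil with 0.5% additive at 600 L/ha water, at 1280 or 320 g/ha. Plants were kept in the greenhouse, and activity was rated visually about 3 weeks later as % versus untreated controls (100% = dead).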

[10] = system: Echinochloa crus-galli (ECHCG); experiment: Herbicidal post-emergence action (Table B1); conditions: 1280 g/ha; rated visually after about 3 weeks; 100% = plants have died, 0% = like control plants
Protocol: (§4) Seeds of mono- and dicotyledonous weed plants were placed in plastic pots in sandy loam soil (doubly sown with in each case one species of mono- or dicotyledonous weed plants per pot), covered with soil and cultivated in a greenhouse under controlled growth conditions. 2 to 3 weeks after sowing, the test plants were treated at the one-leaf stage. The compounds of the invention, formulated in the form of wettable powders (WP) or as emulsion concentrates (EC), were applied onto the green parts of the plants as aqueous suspension or emulsion with addition of 0.5% additive at a water application rate of 600 liters per hectare (converted). After the test plants had been kept in the greenhouse under optimum growth conditions for about 3 weeks, the activity of the preparations was rated visually in comparison to untreated controls. For example, 100% activity=the plants have died, 0% activity=like control plants. Tables B1 to B12 below show the effects of selected compounds of the general formula (I) according to Table 1 on various harmful plants and an application rate corresponding to 1280 or 320 g/ha, which were obtained by the experimental procedure mentioned above.

[11] = system: Echinochloa crus-galli (ECHCG); experiment: Herbicidal pre-emergence action, test C (Table C1); conditions: dosage 1280 g/ha; visual scoring after about 3 weeks; 100% = plants have died, 0% = like control plants
Text: as §3

[12] = system: Alopecurus myosuroides (ALOMY); experiment: Herbicidal post-emergence action (Table B9); conditions: rated visually after about 3 weeks, 100% = plants have died, 0% = like control plants
Protocol: as §4

[13] = system: Amaranthus retroflexus (AMARE); experiment: Herbicidal post-emergence action (Table B6); conditions: visual rating about 3 weeks after treatment, 100% = plants have died, 0% = like control plants
In short: as §1

Bassia scoparia (KCHSC) [14] = experiment: Herbicidal post-emergence action (Table B11); conditions: visual rating about 3 weeks after treatment, 100% = plants have died, 0% = like control plants
Protocol: as §4

Poa annua (POAAN) [15] = experiment: Herbicidal pre-emergence action, test C (Table C3); conditions: visual scoring after about 3 weeks, 100% = plants have died, 0% = like control plants
In short: as §2

Setaria viridis (SETVI) = experiment: Herbicidal pre-emergence action, test C (Table C4); conditions: visual scoring after about 3 weeks, 100% = plants have died, 0% = like control plants
In short: as §2

[16] = system: Digitaria sanguinalis (DIGSA); experiment: Herbicidal post-emergence action (Table B10); conditions: visual rating about 3 weeks after treatment, 100% = plants have died, 0% = like control plants
Protocol: as §4

[17] = system: Alopecurus myosuroides (ALOMY); experiment: Herbicidal pre-emergence action, test C (Table C9); conditions: visual scoring after about 3 weeks, 100% = plants have died, 0% = like control plants
Text: as §3

[18] = system: Abutilon theophrasti (ABUTH); experiment: Herbicidal post-emergence action (Table B5); conditions: rated visually after about 3 weeks, 100% = plants have died, 0% = like control plants
In short: as §1

[19] = system: Abutilon theophrasti (ABUTH); experiment: Herbicidal pre-emergence action, test C (Table C5); conditions: visual scoring after about 3 weeks, 100% = plants have died, 0% = like control plants
In short: as §2

Stellaria media (STEME) [20] = experiment: Herbicidal pre-emergence action, test C (Table C8); conditions: visual scoring after about 3 weeks, 100% = plants have died, 0% = like control plants
In short: as §2

Bassia scoparia (KCHSC) [21] = experiment: Herbicidal pre-emergence action, test C (Table C11); conditions: dosage 1280 g/ha, visual scoring vs untreated controls
Text: as §3

Structure (SMILES) | Post-emergence action against Stellaria media (STEME) (Stellaria media (STEME) [1]; dosage 320 g/ha) [%] | Post-emergence action against Stellaria media (STEME) (Stellaria media (STEME) [1]; dosage 1280 g/ha) [%] | Post-emergence action against Poa annua (POAAN) (Poa annua (POAAN) [3]; 320 g/ha) [%] | Post-emergence action against Poa annua (POAAN) (Poa annua (POAAN) [3]; 1280 g/ha) [%] | Pre-emergence action against Veronica persica (VERPE) (Veronica persica (VERPE) [4]; dosage 320 g/ha) [%] | Pre-emergence action against Veronica persica (VERPE) (Veronica persica (VERPE) [4]; dosage 1280 g/ha) [%] | Pre-emergence action against Digitaria sanguinalis (DIGSA) ([5]; dosage 1280 g/ha) [%] | Pre-emergence action against Amaranthus retroflexus (AMARE) ([6]; dosage 320 g/ha) [%] | Pre-emergence action against Amaranthus retroflexus (AMARE) ([6]; dosage 1280 g/ha) [%] | Post-emergence action against Veronica persica (VERPE) (Veronica persica (VERPE) [7]; dosage 320 g/ha) [%] | Post-emergence action against Veronica persica (VERPE) (Veronica persica (VERPE) [7]; dosage 1280 g/ha) [%] | herbicidal activity against the harmful plants of Tables B1-B12 in post-emergence treatment [8] | herbicidal activity against the harmful plants of Tables C1-C12 in pre-emergence treatment [9] | Post-emergence action against Amaranthus retroflexus (AMARE) ([13]; dosage 1280 g/ha) [%] | Post-emergence action against Bassia scoparia (KCHSC) (Bassia scoparia (KCHSC) [14]; dosage 1280 g/ha) [%] | Pre-emergence action against Poa annua (POAAN) (Poa annua (POAAN) [15]; dosage 320 g/ha) [%] | Pre-emergence action against Poa annua (POAAN) (Poa annua (POAAN) [15]; dosage 1280 g/ha) [%] | Pre-emergence action against Setaria viridis (SETVI) (Setaria viridis (SETVI); dosage 1280 g/ha) [%] | Post-emergence action against Abutilon theophrasti (ABUTH) ([18]; 320 g/ha) [%] | Pre-emergence action against Stellaria media (STEME) (Stellaria media (STEME) [20]; dosage 1280 g/ha) [%] | further results
Cc1cccc(Oc2ncc(Cl)cc2F)c1-c1cc(C(F)F)on1 [Example 1-10] | 100 | 100 | 100 | 100 | 100 | 100 | 100 | 100 | 100 | 100 | 100 | very good herbicidal activity | very good herbicidal activity | 100 | 100 | 100 | 100 | 100 | 90 | 100 | Pre-emergence action against Matricaria inodora (MATIN) ([2]; dosage 320 g/ha): 100%; Pre-emergence action against Matricaria inodora (MATIN) ([2]; dosage 1280 g/ha): 100%; Pre-emergence action against Lolium rigidum (LOLRI) (Lolium rigidum (LOLRI)): 90%; Pre-emergence action against Digitaria sanguinalis (DIGSA) ([5]; dosage 320 g/ha): 100%; Post-emergence action against Echinochloa crus-galli (ECHCG) [10]: 100%; Pre-emergence action against Echinochloa crus-galli (ECHCG) [11]: 90%; Post-emergence action against Alopecurus myosuroides (ALOMY) ([12]; 320 g/ha): 100%; Post-emergence action against Alopecurus myosuroides (ALOMY) ([12]; 1280 g/ha): 100%; Pre-emergence action against Setaria viridis (SETVI) (Setaria viridis (SETVI); dosage 320 g/ha): 100%; Post-emergence action against Digitaria sanguinalis (DIGSA) ([16]; dosage 320 g/ha): 100%; Post-emergence action against Digitaria sanguinalis (DIGSA) ([16]; dosage 1280 g/ha): 100%; Pre-emergence action against Alopecurus myosuroides (ALOMY) ([17]; dosage 320 g/ha): 100%; Pre-emergence action against Alopecurus myosuroides (ALOMY) ([17]; dosage 1280 g/ha): 100%; Post-emergence action against Abutilon theophrasti (ABUTH) ([18]; 1280 g/ha): 100%; Pre-emergence action against Abutilon theophrasti (ABUTH) ([19]; dosage 320 g/ha): 100%; Pre-emergence action against Abutilon theophrasti (ABUTH) ([19]; dosage 1280 g/ha): 100%; Pre-emergence action against Stellaria media (STEME) (Stellaria media (STEME) [20]; dosage 320 g/ha): 100%
Cn1nc(-c2c(F)cccc2Oc2ccc(Cl)cn2)cc1C(F)F [Example 1-64] |  | 100 |  |  | 90 | 100 | 90 | 100 | 100 | 90 | 90 | very good herbicidal activity | very good herbicidal activity | 100 | 90 | 90 | 100 | 100 |  | 100 | Pre-emergence action against Matricaria inodora (MATIN) ([2]; dosage 1280 g/ha): 90%; Pre-emergence action against Lolium rigidum (LOLRI) (Lolium rigidum (LOLRI)): 90%; Post-emergence action against Amaranthus retroflexus (AMARE) ([13]; dosage 320 g/ha): 100%; Pre-emergence action against Abutilon theophrasti (ABUTH) ([19]; dosage 1280 g/ha): 90%
Fc1cccnc1Oc1ccccc1-c1cc(C(F)F)no1 [Example 1-47] | 100 | 100 | 100 | 100 | 90 | 100 | 90 | 100 | 100 | 100 | 100 | very good herbicidal activity | very good herbicidal activity | 100 | 90 | 100 | 100 | 90 | 90 | 100 | Post-emergence action against Amaranthus retroflexus (AMARE) ([13]; dosage 320 g/ha): 90%; Pre-emergence action against Bassia scoparia (KCHSC) (Bassia scoparia (KCHSC) [21]): 90%; Post-emergence action against Bassia scoparia (KCHSC) (Bassia scoparia (KCHSC) [14]; dosage 320 g/ha): 90%; Post-emergence action against Abutilon theophrasti (ABUTH) ([18]; 1280 g/ha): 100%; Pre-emergence action against Stellaria media (STEME) (Stellaria media (STEME) [20]; dosage 320 g/ha): 100%
Cn1nc(-c2c(F)cccc2Oc2ncc(Cl)cc2F)cc1C(F)F [Example 1-61] | 100 | 100 | 100 | 100 |  | 100 | 100 | 100 | 100 | 100 | 100 | very good herbicidal activity | very good herbicidal activity | 100 | 100 | 90 | 100 | 90 | 100 | 100 | Post-emergence action against Amaranthus retroflexus (AMARE) ([13]; dosage 320 g/ha): 100%; Pre-emergence action against Bassia scoparia (KCHSC) (Bassia scoparia (KCHSC) [21]): 100%; Post-emergence action against Bassia scoparia (KCHSC) (Bassia scoparia (KCHSC) [14]; dosage 320 g/ha): 100%; Post-emergence action against Abutilon theophrasti (ABUTH) ([18]; 1280 g/ha): 100%; Pre-emergence action against Abutilon theophrasti (ABUTH) ([19]; dosage 1280 g/ha): 100%
